{"source": "paper PMC10895652", "about": "“Preclinical Evaluation of Novel Positron Emission Tomography (PET) Probes for Imaging Leucine-Rich Repeat Kinase 2 (LRRK2)” (Journal of Medicinal Chemistry, 2024)", "target": "T1, LRRK2 (Rattus norvegicus, UniProt F1LNJ1)", "T1 construct": "from tissue; host or cells: rat brain (Sprague-Dawley rats)", "T1 sequence (F1LNJ1 1-2526)": "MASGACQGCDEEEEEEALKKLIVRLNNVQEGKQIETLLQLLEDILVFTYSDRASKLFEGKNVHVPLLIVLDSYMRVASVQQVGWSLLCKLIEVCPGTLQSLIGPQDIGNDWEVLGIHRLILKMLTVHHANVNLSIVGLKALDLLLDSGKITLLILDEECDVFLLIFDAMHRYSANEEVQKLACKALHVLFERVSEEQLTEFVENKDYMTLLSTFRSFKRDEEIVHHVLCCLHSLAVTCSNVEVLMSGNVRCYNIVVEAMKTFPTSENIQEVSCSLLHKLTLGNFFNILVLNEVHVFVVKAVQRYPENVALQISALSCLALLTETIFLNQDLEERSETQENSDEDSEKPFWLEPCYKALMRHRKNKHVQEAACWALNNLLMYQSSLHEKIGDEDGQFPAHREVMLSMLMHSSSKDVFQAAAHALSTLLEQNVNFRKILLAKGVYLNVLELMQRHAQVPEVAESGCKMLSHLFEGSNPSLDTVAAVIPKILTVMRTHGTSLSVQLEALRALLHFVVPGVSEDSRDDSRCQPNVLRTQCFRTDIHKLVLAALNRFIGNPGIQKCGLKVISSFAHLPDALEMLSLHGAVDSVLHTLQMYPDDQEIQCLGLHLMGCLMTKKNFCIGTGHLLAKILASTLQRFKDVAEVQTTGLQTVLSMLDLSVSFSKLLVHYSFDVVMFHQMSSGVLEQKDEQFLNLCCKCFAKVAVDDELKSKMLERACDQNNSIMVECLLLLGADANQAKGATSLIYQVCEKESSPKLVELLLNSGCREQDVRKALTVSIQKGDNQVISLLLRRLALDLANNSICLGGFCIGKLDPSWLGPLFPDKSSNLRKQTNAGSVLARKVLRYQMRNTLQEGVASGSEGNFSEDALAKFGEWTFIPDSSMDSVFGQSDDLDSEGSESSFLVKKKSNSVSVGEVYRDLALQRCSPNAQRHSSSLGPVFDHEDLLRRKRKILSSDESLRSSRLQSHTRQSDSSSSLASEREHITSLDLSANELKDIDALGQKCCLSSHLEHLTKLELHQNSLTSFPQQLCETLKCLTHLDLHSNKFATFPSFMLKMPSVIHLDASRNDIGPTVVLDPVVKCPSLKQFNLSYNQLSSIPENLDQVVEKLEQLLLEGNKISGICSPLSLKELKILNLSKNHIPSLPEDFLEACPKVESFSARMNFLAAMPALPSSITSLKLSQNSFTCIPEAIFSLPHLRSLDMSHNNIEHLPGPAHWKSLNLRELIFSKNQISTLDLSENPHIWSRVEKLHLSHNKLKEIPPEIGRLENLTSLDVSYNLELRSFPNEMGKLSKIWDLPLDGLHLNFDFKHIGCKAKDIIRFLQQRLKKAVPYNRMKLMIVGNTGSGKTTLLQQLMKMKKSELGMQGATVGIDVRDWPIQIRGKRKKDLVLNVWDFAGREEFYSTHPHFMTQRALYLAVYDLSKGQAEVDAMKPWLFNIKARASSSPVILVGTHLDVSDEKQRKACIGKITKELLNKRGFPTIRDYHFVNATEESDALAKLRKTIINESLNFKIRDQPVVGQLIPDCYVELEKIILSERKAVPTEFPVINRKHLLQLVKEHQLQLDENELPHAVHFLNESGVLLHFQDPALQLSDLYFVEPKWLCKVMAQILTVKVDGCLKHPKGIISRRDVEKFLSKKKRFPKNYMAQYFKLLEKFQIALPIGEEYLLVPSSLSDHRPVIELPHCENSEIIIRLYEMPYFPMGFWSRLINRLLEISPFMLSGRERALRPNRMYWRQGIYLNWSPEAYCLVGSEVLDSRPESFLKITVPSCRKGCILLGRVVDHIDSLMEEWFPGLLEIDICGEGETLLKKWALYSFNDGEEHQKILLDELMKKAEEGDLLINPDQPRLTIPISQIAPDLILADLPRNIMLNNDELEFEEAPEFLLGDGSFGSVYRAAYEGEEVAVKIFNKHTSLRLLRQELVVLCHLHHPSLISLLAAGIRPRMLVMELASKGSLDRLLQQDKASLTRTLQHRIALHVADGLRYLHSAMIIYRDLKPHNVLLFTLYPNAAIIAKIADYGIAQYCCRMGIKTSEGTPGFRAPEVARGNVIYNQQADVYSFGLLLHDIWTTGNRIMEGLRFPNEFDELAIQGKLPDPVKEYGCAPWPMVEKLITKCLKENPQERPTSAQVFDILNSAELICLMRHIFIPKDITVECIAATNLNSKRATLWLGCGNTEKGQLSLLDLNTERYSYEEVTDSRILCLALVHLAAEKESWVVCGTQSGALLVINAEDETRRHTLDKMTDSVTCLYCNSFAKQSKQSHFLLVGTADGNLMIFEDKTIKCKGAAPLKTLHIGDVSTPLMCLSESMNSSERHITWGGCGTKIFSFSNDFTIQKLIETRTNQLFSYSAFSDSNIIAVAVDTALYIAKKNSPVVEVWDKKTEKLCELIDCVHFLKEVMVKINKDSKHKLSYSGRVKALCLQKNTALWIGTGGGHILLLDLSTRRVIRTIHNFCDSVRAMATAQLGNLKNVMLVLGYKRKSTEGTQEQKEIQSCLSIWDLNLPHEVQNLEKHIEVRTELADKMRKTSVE", "assay": "PET imaging in rats with arterial blood sampling (2TCM, VT)", "format": "in vivo", "conditions": "compound 3 (1 mg/kg) i.v. prior to tracer injection", "experimental": "The promising pharmacological, pharmacokinetic, and in vitro autoradiographic data encouraged us to carry out preliminary dynamic PET imaging studies of [^11C]3 and [^18F]4. […] Given the superiority of fluorine-18 such as clean positron emission, low positron range, and relatively long half-life compared with carbon-11, [^18F]4 was subjected to further investigation (Figure 6). A blocking scan was carried out with intravenous administration of compound 3 (1 mg/kg) prior to tracer injection. For both baseline and blocking studies, blood samples were extracted from the artery. Both whole-blood and plasma radioactivity concentrations were evaluated, and radiometabolites were measured in plasma samples by radio high-performance liquid chromatography (HPLC) to generate metabolite-corrected input function (Figure S2). Compartmental analyses with one- and two-tissue compartment models (1TCM and 2TCM) were carried out on regional time–activity curves. […] In the baseline study, VT of various brain regions ranged from 2.2 to 2.9 mL/cm^3, confirming the high binding of the radiotracer.\nThe general procedure for PET studies was described previously[35],[41] with minor modification in this work. […] The radioactivity was decay-corrected and expressed as the standard uptake value: SUV = (radioactivity per mL tissue/injected radioactivity) × body weight.", "data": [{"smiles": "N#Cc1cccc(-c2c[nH]c3ncnc(N4CCOCC4)c23)c1[18F]", "note": "[[^18F]4]", "values": [{"measurement": "uptake in various brain regions after pretreatment of compound 3", "result": "significant decrease of uptake"}]}]}
